Assay results reported in ChEMBL document CHEMBL5303573, “Mapping human microbiome drug metabolism by gut bacteria and their genes” (Nature, 2019).

Experiment: The drug is tested on Escherichia coli strain: BW25113 for biotransformation. The drug concentrations were measured before and after a 12-h incubation by liquid-chromatography-coupled mass spectrometry (LC–MS)
Settings: 2 µM

Compound	Bacterial Biotransformation
COC(=O)C1=C(C)NC(C)=C(C(=O)OC(C)C)C1c1cccc2nonc12 (stereo not drawn) [ISRADIPINE]	Compound NOT metabolized
CCN(CC)C(=O)C1(c2ccccc2)CC1CN (stereo not drawn)	Compound NOT metabolized

Experiment: The drug is tested on Bifidobacterium breve strain: DSM20213 for biotransformation. The drug concentrations were measured before and after a 12-h incubation by liquid-chromatography-coupled mass spectrometry (LC–MS)
Settings: 2 µM

Compound	Bacterial Biotransformation
Cc1ccccc1N1C(=O)c2cc(S(N)(=O)=O)c(Cl)cc2NC1C (stereo not drawn) [METOLAZONE]	Compound NOT metabolized
COC(=O)C1=C(C)NC(C)=C(C(=O)OC(C)C)C1c1cccc2nonc12 (stereo not drawn) [ISRADIPINE]	Compound NOT metabolized
CC(C)N(CCC(C(N)=O)(c1ccccc1)c1ccccn1)C(C)C.O=P(O)(O)O (stereo not drawn) [DISOPYRAMIDE PHOSPHATE]	Compound NOT metabolized
CCN(CC)C(=O)C1(c2ccccc2)CC1CN (stereo not drawn)	Compound NOT metabolized

Settings: bifidobacterium adolescentis, 12 h, 2 µM
Description: The drug is tested on Bifidobacterium adolescentis strain: ATCC 15703 for biotransformation. The drug concentrations were measured before and after a 12-h incubation by liquid-chromatography-coupled mass spectrometry (LC–MS)

Compound	Bacterial Biotransformation
Cc1ccccc1N1C(=O)c2cc(S(N)(=O)=O)c(Cl)cc2NC1C (stereo not drawn) [METOLAZONE]	Compound NOT metabolized
COC(=O)C1=C(C)NC(C)=C(C(=O)OC(C)C)C1c1cccc2nonc12 (stereo not drawn) [ISRADIPINE]	Compound NOT metabolized
CC(C)N(CCC(C(N)=O)(c1ccccc1)c1ccccn1)C(C)C.O=P(O)(O)O (stereo not drawn) [DISOPYRAMIDE PHOSPHATE]	Compound NOT metabolized
CCN(CC)C(=O)C1(c2ccccc2)CC1CN (stereo not drawn)	Compound NOT metabolized

Settings: anaerostipes sp., 12 h, 2 µM
Description: The drug is tested on Anaerostipes sp. strain: fecal isolate for biotransformation. The drug concentrations were measured before and after a 12-h incubation by liquid-chromatography-coupled mass spectrometry (LC–MS)

Compound	Bacterial Biotransformation
Cc1ccccc1N1C(=O)c2cc(S(N)(=O)=O)c(Cl)cc2NC1C (stereo not drawn) [METOLAZONE]	Compound NOT metabolized
COC(=O)C1=C(C)NC(C)=C(C(=O)OC(C)C)C1c1cccc2nonc12 (stereo not drawn) [ISRADIPINE]	Compound NOT metabolized
CC(C)N(CCC(C(N)=O)(c1ccccc1)c1ccccn1)C(C)C.O=P(O)(O)O (stereo not drawn) [DISOPYRAMIDE PHOSPHATE]	Compound NOT metabolized
CCN(CC)C(=O)C1(c2ccccc2)CC1CN (stereo not drawn)	Compound NOT metabolized

Experiment: The drug is tested on Enterococcus faecalis strain: V583 for biotransformation. The drug concentrations were measured before and after a 12-h incubation by liquid-chromatography-coupled mass spectrometry (LC–MS)
Settings: 2 µM

Compound	Bacterial Biotransformation
Cc1ccccc1N1C(=O)c2cc(S(N)(=O)=O)c(Cl)cc2NC1C (stereo not drawn) [METOLAZONE]	Compound NOT metabolized
COC(=O)C1=C(C)NC(C)=C(C(=O)OC(C)C)C1c1cccc2nonc12 (stereo not drawn) [ISRADIPINE]	Compound NOT metabolized
CC(C)N(CCC(C(N)=O)(c1ccccc1)c1ccccn1)C(C)C.O=P(O)(O)O (stereo not drawn) [DISOPYRAMIDE PHOSPHATE]	Compound NOT metabolized
CCN(CC)C(=O)C1(c2ccccc2)CC1CN (stereo not drawn)	Compound NOT metabolized

Settings: parabacteroides distasonis, 12 h, 2 µM
Description: The drug is tested on Parabacteroides distasonis strain: ATCC8503 for biotransformation. The drug concentrations were measured before and after a 12-h incubation by liquid-chromatography-coupled mass spectrometry (LC–MS)

Compound	Bacterial Biotransformation
Cc1ccccc1N1C(=O)c2cc(S(N)(=O)=O)c(Cl)cc2NC1C (stereo not drawn) [METOLAZONE]	Compound NOT metabolized
COC(=O)C1=C(C)NC(C)=C(C(=O)OC(C)C)C1c1cccc2nonc12 (stereo not drawn) [ISRADIPINE]	Compound NOT metabolized
CC(C)N(CCC(C(N)=O)(c1ccccc1)c1ccccn1)C(C)C.O=P(O)(O)O (stereo not drawn) [DISOPYRAMIDE PHOSPHATE]	Compound NOT metabolized
CCN(CC)C(=O)C1(c2ccccc2)CC1CN (stereo not drawn)	Compound NOT metabolized

Settings: segatella copri, 12 h, 2 µM
Description: The drug is tested on Prevotella copri strain: DSM18205 for biotransformation. The drug concentrations were measured before and after a 12-h incubation by liquid-chromatography-coupled mass spectrometry (LC–MS)

Compound	Bacterial Biotransformation
Cc1ccccc1N1C(=O)c2cc(S(N)(=O)=O)c(Cl)cc2NC1C (stereo not drawn) [METOLAZONE]	Compound NOT metabolized
COC(=O)C1=C(C)NC(C)=C(C(=O)OC(C)C)C1c1cccc2nonc12 (stereo not drawn) [ISRADIPINE]	Compound NOT metabolized
CC(C)N(CCC(C(N)=O)(c1ccccc1)c1ccccn1)C(C)C.O=P(O)(O)O (stereo not drawn) [DISOPYRAMIDE PHOSPHATE]	Compound NOT metabolized
CCN(CC)C(=O)C1(c2ccccc2)CC1CN (stereo not drawn)	Compound NOT metabolized

Experiment: The drug is tested on Bacteroides caccae strain: ATCC43185 for biotransformation. The drug concentrations were measured before and after a 12-h incubation by liquid-chromatography-coupled mass spectrometry (LC–MS)
Settings: 2 µM

Compound	Bacterial Biotransformation
Cc1ccccc1N1C(=O)c2cc(S(N)(=O)=O)c(Cl)cc2NC1C (stereo not drawn) [METOLAZONE]	Compound NOT metabolized
CC(C)N(CCC(C(N)=O)(c1ccccc1)c1ccccn1)C(C)C.O=P(O)(O)O (stereo not drawn) [DISOPYRAMIDE PHOSPHATE]	Compound NOT metabolized
CCN(CC)C(=O)C1(c2ccccc2)CC1CN (stereo not drawn)	Compound NOT metabolized

Experiment: The drug is tested on Clostridium scindens strain: ATCC35704 for biotransformation. The drug concentrations were measured before and after a 12-h incubation by liquid-chromatography-coupled mass spectrometry (LC–MS)
Settings: 2 µM

Compound	Bacterial Biotransformation
COC(=O)C1=C(C)NC(C)=C(C(=O)OC(C)C)C1c1cccc2nonc12 (stereo not drawn) [ISRADIPINE]	Compound NOT metabolized
CC(C)N(CCC(C(N)=O)(c1ccccc1)c1ccccn1)C(C)C.O=P(O)(O)O (stereo not drawn) [DISOPYRAMIDE PHOSPHATE]	Compound NOT metabolized
CCN(CC)C(=O)C1(c2ccccc2)CC1CN (stereo not drawn)	Compound NOT metabolized

Settings: parabacteroides johnsonii, 12 h, 2 µM
Description: The drug is tested on Parabacteroides johnsonii strain: DSM18315 for biotransformation. The drug concentrations were measured before and after a 12-h incubation by liquid-chromatography-coupled mass spectrometry (LC–MS)

Compound	Bacterial Biotransformation
Cc1ccccc1N1C(=O)c2cc(S(N)(=O)=O)c(Cl)cc2NC1C (stereo not drawn) [METOLAZONE]	Compound NOT metabolized
COC(=O)C1=C(C)NC(C)=C(C(=O)OC(C)C)C1c1cccc2nonc12 (stereo not drawn) [ISRADIPINE]	Compound NOT metabolized
CC(C)N(CCC(C(N)=O)(c1ccccc1)c1ccccn1)C(C)C.O=P(O)(O)O (stereo not drawn) [DISOPYRAMIDE PHOSPHATE]	Compound NOT metabolized
CCN(CC)C(=O)C1(c2ccccc2)CC1CN (stereo not drawn)	Compound NOT metabolized

Experiment: The drug is tested on Clostridium sp. strain: fecal isolate for biotransformation. The drug concentrations were measured before and after a 12-h incubation by liquid-chromatography-coupled mass spectrometry (LC–MS)
Settings: 2 µM

Compound	Bacterial Biotransformation
COC(=O)C1=C(C)NC(C)=C(C(=O)OC(C)C)C1c1cccc2nonc12 (stereo not drawn) [ISRADIPINE]	Compound NOT metabolized
CCN(CC)C(=O)C1(c2ccccc2)CC1CN (stereo not drawn)	Compound NOT metabolized

Settings: bacteroides fragilis, 12 h, 2 µM
Description: The drug is tested on Bacteroides fragilis strain: 3397 (T10) for biotransformation. The drug concentrations were measured before and after a 12-h incubation by liquid-chromatography-coupled mass spectrometry (LC–MS)

Compound	Bacterial Biotransformation
COC(=O)C1=C(C)NC(C)=C(C(=O)OC(C)C)C1c1cccc2nonc12 (stereo not drawn) [ISRADIPINE]	Compound NOT metabolized
CC(C)N(CCC(C(N)=O)(c1ccccc1)c1ccccn1)C(C)C.O=P(O)(O)O (stereo not drawn) [DISOPYRAMIDE PHOSPHATE]	Compound NOT metabolized
CCN(CC)C(=O)C1(c2ccccc2)CC1CN (stereo not drawn)	Compound NOT metabolized

Experiment: The drug is tested on Odoribacter splanchnicus strain: fecal isolate for biotransformation. The drug concentrations were measured before and after a 12-h incubation by liquid-chromatography-coupled mass spectrometry (LC–MS)
Settings: 2 µM

Compound	Bacterial Biotransformation
Cc1ccccc1N1C(=O)c2cc(S(N)(=O)=O)c(Cl)cc2NC1C (stereo not drawn) [METOLAZONE]	Compound NOT metabolized
COC(=O)C1=C(C)NC(C)=C(C(=O)OC(C)C)C1c1cccc2nonc12 (stereo not drawn) [ISRADIPINE]	Compound NOT metabolized
CC(C)N(CCC(C(N)=O)(c1ccccc1)c1ccccn1)C(C)C.O=P(O)(O)O (stereo not drawn) [DISOPYRAMIDE PHOSPHATE]	Compound NOT metabolized
CCN(CC)C(=O)C1(c2ccccc2)CC1CN (stereo not drawn)	Compound NOT metabolized

Experiment: The drug is tested on Blautia hansenii strain: DSM20583 for biotransformation. The drug concentrations were measured before and after a 12-h incubation by liquid-chromatography-coupled mass spectrometry (LC–MS)
Settings: 2 µM

Compound	Bacterial Biotransformation
COC(=O)C1=C(C)NC(C)=C(C(=O)OC(C)C)C1c1cccc2nonc12 (stereo not drawn) [ISRADIPINE]	Compound NOT metabolized
CCN(CC)C(=O)C1(c2ccccc2)CC1CN (stereo not drawn)	Compound NOT metabolized

Settings: bacteroides thetaiotaomicron, 12 h, 2 µM
Description: The drug is tested on Bacteroides thetaiotaomicron strain: VPI-5482 for biotransformation. The drug concentrations were measured before and after a 12-h incubation by liquid-chromatography-coupled mass spectrometry (LC–MS)

Compound	Bacterial Biotransformation
Cc1ccccc1N1C(=O)c2cc(S(N)(=O)=O)c(Cl)cc2NC1C (stereo not drawn) [METOLAZONE]	Compound NOT metabolized
COC(=O)C1=C(C)NC(C)=C(C(=O)OC(C)C)C1c1cccc2nonc12 (stereo not drawn) [ISRADIPINE]	Compound NOT metabolized
CCN(CC)C(=O)C1(c2ccccc2)CC1CN (stereo not drawn)	Compound NOT metabolized

Experiment: The drug is tested on Bacteroides vulgatus strain: ATCC8482 for biotransformation. The drug concentrations were measured before and after a 12-h incubation by liquid-chromatography-coupled mass spectrometry (LC–MS)
Settings: phocaeicola vulgatus, 2 µM

Compound	Bacterial Biotransformation
Cc1ccccc1N1C(=O)c2cc(S(N)(=O)=O)c(Cl)cc2NC1C (stereo not drawn) [METOLAZONE]	Compound NOT metabolized
COC(=O)C1=C(C)NC(C)=C(C(=O)OC(C)C)C1c1cccc2nonc12 (stereo not drawn) [ISRADIPINE]	Compound NOT metabolized
CCN(CC)C(=O)C1(c2ccccc2)CC1CN (stereo not drawn)	Compound NOT metabolized

Experiment: The drug is tested on Bacteroides cellulosilyticus strain: DSM14838 for biotransformation. The drug concentrations were measured before and after a 12-h incubation by liquid-chromatography-coupled mass spectrometry (LC–MS)
Settings: 2 µM

Compound	Bacterial Biotransformation
Cc1ccccc1N1C(=O)c2cc(S(N)(=O)=O)c(Cl)cc2NC1C (stereo not drawn) [METOLAZONE]	Compound NOT metabolized
CC(C)N(CCC(C(N)=O)(c1ccccc1)c1ccccn1)C(C)C.O=P(O)(O)O (stereo not drawn) [DISOPYRAMIDE PHOSPHATE]	Compound NOT metabolized

Experiment: The drug is tested on Providencia rettgeri strain: DSM1131 for biotransformation. The drug concentrations were measured before and after a 12-h incubation by liquid-chromatography-coupled mass spectrometry (LC–MS)
Format: ADME
Set-up: dose 2 uM, timepoint 0 vs 12 hours
Settings: 2 µM

Compound	Bacterial Biotransformation
COC(=O)C1=C(C)NC(C)=C(C(=O)OC(C)C)C1c1cccc2nonc12 (stereo not drawn) [ISRADIPINE]	Compound NOT metabolized
CC(C)N(CCC(C(N)=O)(c1ccccc1)c1ccccn1)C(C)C.O=P(O)(O)O (stereo not drawn) [DISOPYRAMIDE PHOSPHATE]	Compound NOT metabolized
CCN(CC)C(=O)C1(c2ccccc2)CC1CN (stereo not drawn)	Compound NOT metabolized

Experiment: The drug is tested on Clostridium sporogenes strain: ATCC15579 for biotransformation. The drug concentrations were measured before and after a 12-h incubation by liquid-chromatography-coupled mass spectrometry (LC–MS)
Settings: 2 µM

Compound	Bacterial Biotransformation
COC(=O)C1=C(C)NC(C)=C(C(=O)OC(C)C)C1c1cccc2nonc12 (stereo not drawn) [ISRADIPINE]	Compound NOT metabolized
CCN(CC)C(=O)C1(c2ccccc2)CC1CN (stereo not drawn)	Compound NOT metabolized

Experiment: The drug is tested on Ruminococcus lactaris strain: ATCC29176 for biotransformation. The drug concentrations were measured before and after a 12-h incubation by liquid-chromatography-coupled mass spectrometry (LC–MS)
Settings: 2 µM

Compound	Bacterial Biotransformation
COC(=O)C1=C(C)NC(C)=C(C(=O)OC(C)C)C1c1cccc2nonc12 (stereo not drawn) [ISRADIPINE]	Compound NOT metabolized
CC(C)N(CCC(C(N)=O)(c1ccccc1)c1ccccn1)C(C)C.O=P(O)(O)O (stereo not drawn) [DISOPYRAMIDE PHOSPHATE]	Compound NOT metabolized
CCN(CC)C(=O)C1(c2ccccc2)CC1CN (stereo not drawn)	Compound NOT metabolized
